Reference: US12091411B2, “IRAK degraders and uses thereof” (Kymera Therapeutics, Inc., priority 2022, dated 2024)
Where two headings read alike, the source gives them in different places.

Target: T1, IRAK4 (Homo sapiens, UniProt Q9NWZ3)
T1 construct: Degradation of IRAK4 in OCI-LY10 was quantitatively measured using Meso Scale Discovery technology; endogenous in cells; host or cells: OCI-LY10
T1 sequence (Q9NWZ3 1-460): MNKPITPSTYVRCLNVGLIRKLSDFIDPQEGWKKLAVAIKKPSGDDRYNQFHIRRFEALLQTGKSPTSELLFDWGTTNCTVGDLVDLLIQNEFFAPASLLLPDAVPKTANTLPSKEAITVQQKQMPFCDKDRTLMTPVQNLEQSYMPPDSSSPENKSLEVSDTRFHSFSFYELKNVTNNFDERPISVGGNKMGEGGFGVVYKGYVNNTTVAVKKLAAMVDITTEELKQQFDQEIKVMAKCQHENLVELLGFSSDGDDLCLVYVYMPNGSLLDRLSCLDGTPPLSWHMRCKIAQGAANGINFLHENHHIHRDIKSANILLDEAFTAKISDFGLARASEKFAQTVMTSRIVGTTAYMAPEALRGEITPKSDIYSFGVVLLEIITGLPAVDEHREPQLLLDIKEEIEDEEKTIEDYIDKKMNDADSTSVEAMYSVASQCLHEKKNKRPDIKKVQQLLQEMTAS
Assay: IRAK4 MSD Degradation in OCI-LY10
Assay type: cell-based
Conditions: OCI-LY10 cells, MSD
How it was run: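 OCI-LY10 cells exposed to 8-point 1:3 compound series (top 1 to 10 μM) for 4 to 24 h at 37 °C, 5% CO2. Lysate IRAK4 quantified by MSD sandwich immunoassay. DC50 from three-parameter logistic fit, binned A (<0.01 μM) to D (>0.2 μM or not tested).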

[1] = 4 hrs incubation, read-out: IRAK4 degradation in OCI-LY10 at 4 hrs: DC50
[2] = 24 hrs incubation, read-out: IRAK4 degradation in OCI-LY10 at 24 hrs: DC50

SMILES | DC50 [1] [nM] | DC50 [2] [nM]
Cn1c(=O)n(C2CCC(=O)NC2=O)c2ccc(N3CC(CO[C@@H]4CCN(CC5CCC(n6cc(NC(=O)c7cnn8ccc(N9C[C@H]%10C[C@@H]9CO%10)nc78)c(C(F)F)n6)CC5)C[C@@H]4F)C3)c(F)c21 (some centres unmarked) [I-725] | > 200 | > 200
Cn1c(NC(=O)c2cccc(C(F)(F)F)n2)cc2cn([C@H]3CC[C@H](CN4CCC(c5cccc6c5n(C)c(=O)n6C5CCC(=O)NC5=O)C(F)(F)C4)CC3)nc2c1=O (some centres unmarked) [I-771] | > 200 | > 200
Cn1c(=O)n(C2CCC(=O)NC2=O)c2cccc(C3CCN(C[C@H]4CC[C@H](n5cc6cc(NC(=O)c7cccc(C#N)n7)ncc6n5)CC4)CC3(F)F)c21 (some centres unmarked) [I-615] | > 200 | < 10
Cc1cccc(C(=O)Nc2ccc3nn([C@H]4CC[C@H](CN5CCC(c6cccc7c6n(C)c(=O)n7C6CCC(=O)NC6=O)C(F)(F)C5)CC4)cc3c2)n1 (some centres unmarked) [I-611] | > 200 | > 200
Cn1c(=O)n(C2CCC(=O)NC2=O)c2cccc(N3CC4(CCN(C[C@H]5CC[C@H](n6cc(NC(=O)c7cnn8ccc(N9C[C@H]%10C[C@@H]9CO%10)nc78)c(C(F)F)n6)CC5)CC4(F)F)C3)c21 (some centres unmarked) [I-669] | > 200 | < 10
Cn1c(=O)n(C2CCC(=O)NC2=O)c2cccc(CN3CC4(CCN(Cc5ccc(-n6cc(NC(=O)c7cnn8ccc(N9C[C@H]%10C[C@@H]9CO%10)nc78)c(C(F)F)n6)cc5)CC4)C3)c21 (some centres unmarked) [I-702] | > 200 | 10 to 100
Cn1c(=O)n(C2CCC(=O)NC2=O)c2cccc([C@@H]3CCN(C[C@H]4CC[C@H](n5cc6cc(NC(=O)c7cccc(C#N)n7)c(C(C)(C)O)cc6n5)CC4)C[C@H]3F)c21 (some centres unmarked) [I-649] | > 200 | < 10
Cn1c(=O)n(C2CCC(=O)NC2=O)c2cccc(N3CCC(N4CCn5cc(-n6cc(NC(=O)c7cnn8cccnc78)c(C(F)F)n6)cc5C4)CC3)c21 (centres unmarked) [I-416] | > 200 | > 200
COc1cc2nn([C@H]3CC[C@H](CN4CCC5(CC4)CC(N(C)c4cccc6c4C(=O)N(C4CCC(=O)NC4=O)C6=O)C5)CC3)cc2cc1NC(=O)c1cccc(C(F)(F)F)n1 (some centres unmarked) [I-141] | > 200 | 10 to 100

Now from value to compound:

DC50 [1] [nM] | DC50 [2] [nM] | SMILES
> 200 | > 200 | Cn1c(=O)n(C2CCC(=O)NC2=O)c2cccc(C#CCO[C@@H]3CCN(C[C@H]4CC[C@H](n5cc(NC(=O)c6cnn7ccc(N8CCS(=O)(=O)CC8)nc67)c(C(F)F)n5)CC4)C[C@H]3F)c21 (some centres unmarked) [I-590]
> 200 | < 10 | CN(C[C@H]1CC[C@H](n2cc(NC(=O)c3cnn4ccc(N5CCC6(CC5)CC6)nc34)c(C(F)F)n2)CC1)C1CCN(c2cccc3c2n(C)c(=O)n3C2CCC(=O)NC2=O)CC1 (some centres unmarked) [I-272]
10 to 100 | > 200 | COc1ccc2c(c1C#CCO[C@H]1CCN(C[C@H]3CC[C@H](n4cc(NC(=O)c5cnn6ccc(N7C[C@H]8C[C@@H]7CO8)nc56)c(C(F)F)n4)CC3)C[C@H]1F)n(C)c(=O)n2C1CCC(=O)NC1=O (some centres unmarked) [I-51]
> 200 | > 200 | Cn1c(=O)n(C2CCC(=O)NC2=O)c2cccc(C3CN([C@H]4CCN([C@H]5CC[C@H](n6cc(NC(=O)c7cnn8ccc(N9C[C@H]%10C[C@@H]9CO%10)nc78)c(C(F)F)n6)CC5)CC4(F)F)C3)c21 (some centres unmarked) [I-750]
> 200 | > 200 | Cn1c(=O)n(C2CCC(=O)NC2=O)c2cccc(C#CCOC3CCN(C[C@H]4CC[C@H](n5cc(NC(=O)c6cnn7ccc(N8CCC9(COC9)C8)nc67)c(C(F)F)n5)CC4)CC3)c21 (some centres unmarked) [I-330]
> 200 | > 200 | Cn1c(=O)n(C2CCC(=O)NC2=O)c2cccc(C#CCOC3CCN(C[C@H]4CC[C@H](n5cc(NC(=O)c6cnn7ccc(N8CC9(COC9)C8)nc67)c(C(F)F)n5)CC4)CC3)c21 (some centres unmarked) [I-325]
> 200 | > 200 | CN(C[C@H]1CC[C@H](n2cc(NC(=O)c3cnn4ccc(N5CCO[C@H](C(F)(F)F)C5)nc34)c(C(F)F)n2)CC1)C1CCN(c2cccc3c2n(C)c(=O)n3C2CCC(=O)NC2=O)CC1(F)F (some centres unmarked) [I-538]
